Assay results reported in patent publication US20140213513A1 (Sanofi, priority 2012, published 2014).
*1 amine or outer side, *2 acyl side, *3 side chain or, on linkers, in order; H or OH if unused. Where a SMILES comes first, the peptide text is derived from it. Side-chain parts run from the residue outwards. [ ]: non-standard residue; d: D form. The star is where a group is joined. γGlu = O=C(O)[C@H](CCC(=O)[*:2])N[*:1]; Palmitoyl = CCCCCCCCCCCCCCCC(=O)*; Aib = CC(C)(N)C(=O)O

Key:
Type in all cases: cell-based
Conditions in all cases: Table 7; cAMP formation
[1] = target: T1, human GLP-1 receptor (hGLP-1 R) (Homo sapiens, UniProt P43220); assay: cAMP response of HEK-293 cells stably expressing human GLP-1 receptor (HTRF)
T1 construct: expressed in transfected cells
Description: (§1) cAMP content of cells was determined using a kit from Cisbio Corp. (cat. no. 62AM4PEC) based on HTRF (Homogenous Time Resolved Fluorescence). For preparation, cells were split into T175 culture flasks and grown overnight to near confluency in medium (DMEM/10% FBS). Medium was then removed and cells washed with PBS lacking calcium and magnesium, followed by proteinase treatment with accutase (Sigma-Aldrich cat. no. A6964). Detached cells were washed and resuspended in assay buffer (1×HBSS; 20 mM HEPES, 0.1% BSA, 2 mM IBMX) and cellular density determined. They were then diluted to 400000 cells/ml and 25 μl-aliquots dispensed into the wells of 96-well plates. For measurement, 25 μl of test compound in assay buffer was added to the wells, followed by incubation for 30 minutes at room temperature.

[2] = target: T2, human GIP receptor (hGIP R) (Homo sapiens, UniProt P48546); assay: cAMP response of HEK-293 cells stably expressing human GIP receptor (HTRF)
T2 construct: expressed in transfected cells
T2 sequence (P48546 22-466): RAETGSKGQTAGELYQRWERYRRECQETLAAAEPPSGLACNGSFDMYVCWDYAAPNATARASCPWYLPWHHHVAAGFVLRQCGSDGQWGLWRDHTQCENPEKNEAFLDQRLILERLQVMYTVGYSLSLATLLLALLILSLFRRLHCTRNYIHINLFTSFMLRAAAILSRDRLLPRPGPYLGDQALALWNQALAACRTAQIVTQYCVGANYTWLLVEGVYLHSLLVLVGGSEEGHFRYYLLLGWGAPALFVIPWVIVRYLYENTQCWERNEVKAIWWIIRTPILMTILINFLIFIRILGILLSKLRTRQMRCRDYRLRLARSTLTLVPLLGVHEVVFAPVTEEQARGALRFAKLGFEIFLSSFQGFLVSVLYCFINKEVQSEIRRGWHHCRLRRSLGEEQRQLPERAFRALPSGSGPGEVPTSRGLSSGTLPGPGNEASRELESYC
Description: as §1

[3] = target: T3, human glucagon receptor (hGLUC R) (Homo sapiens, UniProt P47871); assay: cAMP response of HEK-293 cells stably expressing human glucagon receptor (HTRF)
T3 construct: expressed in transfected cells
Description: as §1

T3 sequence (P47871 26-477): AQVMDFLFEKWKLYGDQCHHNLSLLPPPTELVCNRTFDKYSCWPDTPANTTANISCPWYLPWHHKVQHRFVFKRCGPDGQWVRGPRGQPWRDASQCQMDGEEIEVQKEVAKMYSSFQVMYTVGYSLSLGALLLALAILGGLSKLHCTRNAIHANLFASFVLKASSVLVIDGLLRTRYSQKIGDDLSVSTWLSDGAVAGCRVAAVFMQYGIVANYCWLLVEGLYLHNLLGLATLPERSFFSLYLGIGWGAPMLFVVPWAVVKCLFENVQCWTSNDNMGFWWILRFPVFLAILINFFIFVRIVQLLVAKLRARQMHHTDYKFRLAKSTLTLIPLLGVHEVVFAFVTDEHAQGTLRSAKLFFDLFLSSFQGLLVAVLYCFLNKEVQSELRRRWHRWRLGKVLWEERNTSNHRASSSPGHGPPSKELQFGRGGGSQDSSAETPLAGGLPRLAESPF
T1 sequence (P43220 24-463): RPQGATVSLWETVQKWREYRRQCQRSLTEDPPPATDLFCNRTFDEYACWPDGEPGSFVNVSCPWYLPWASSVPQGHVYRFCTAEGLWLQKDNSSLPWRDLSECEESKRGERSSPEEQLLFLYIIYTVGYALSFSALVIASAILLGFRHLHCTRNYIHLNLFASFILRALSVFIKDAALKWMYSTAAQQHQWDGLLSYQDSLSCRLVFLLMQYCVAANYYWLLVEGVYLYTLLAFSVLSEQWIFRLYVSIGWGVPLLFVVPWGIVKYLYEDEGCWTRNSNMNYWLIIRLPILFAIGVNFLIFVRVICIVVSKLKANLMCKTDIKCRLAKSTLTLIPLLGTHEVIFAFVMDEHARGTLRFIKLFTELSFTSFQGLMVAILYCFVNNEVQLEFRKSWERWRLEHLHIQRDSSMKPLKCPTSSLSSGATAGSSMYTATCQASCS

CCCCCCCCCCCCCCCC(=O)N[C@@H](CCC(=O)NCCCC[C@H](NC(=O)[C@H](CCC(N)=O)NC(=O)[C@@H](NC(=O)[C@H](CO)NC(=O)[C@H](CC(C)C)NC(=O)[C@H](CC(=O)O)NC(=O)[C@H](CO)NC(=O)[C@@H](NC(=O)[C@H](Cc1ccccc1)NC(=O)[C@@H](NC(=O)CNC(=O)[C@H](CCC(=O)O)NC(=O)C(C)(C)NC(=O)[C@@H](N)Cc1ccc(O)cc1)[C@@H](C)O)[C@@H](C)O)[C@@H](C)CC)C(=O)N[C@@H](CCC(=O)O)C(=O)N[C@@H](CCC(=O)O)C(=O)N[C@@H](CCCNC(=N)N)C(=O)N[C@@H](C)C(=O)N[C@@H](C)C(=O)N[C@@H](Cc1c[nH]cn1)C(=O)N[C@@H](CCC(=O)O)C(=O)N[C@@H](Cc1ccccc1)C(=O)N[C@H](C(=O)N[C@@H](CCC(=O)O)C(=O)N[C@@H](Cc1c[nH]c2ccccc12)C(=O)N[C@@H](CC(C)C)C(=O)N[C@@H](CCCCN)C(=O)N[C@@H](CCCNC(=N)N)C(=O)NC(C)(C)C(=O)NCC(=O)N1CCC[C@H]1C(=O)N[C@@H](CO)C(=O)N[C@@H](CO)C(=O)NCC(=O)N[C@@H](C)C(=O)N1CCC[C@H]1C(=O)N1CCC[C@H]1C(=O)N1CCC[C@H]1C(=O)N[C@@H](CO)C(=O)N[C@@H](CCCCN)C(N)=O)[C@@H](C)CC)C(=O)O [SEQ ID NO: 57, Y-Aib-E-G-T-F-T-S-D-L-S-I-Q-K(yE-x53)-E-E-R-A-A-H-E-F-I-E-W-L-K-R-Aib-G-P-S-S-G-A-P-P-P-S-K-NH2]
EC50 [1]: 0.0071 nM
EC50 [2]: 0.0157 nM
EC50 [3]: 14.4 nM

CCCCCCCCCCCCCCCC(=O)N[C@@H](CCC(=O)NCCCC[C@H](NC(=O)[C@H](CCC(N)=O)NC(=O)[C@@H](NC(=O)[C@H](CO)NC(=O)[C@H](CC(C)C)NC(=O)[C@H](CC(=O)O)NC(=O)[C@H](CO)NC(=O)[C@@H](NC(=O)[C@H](Cc1ccccc1)NC(=O)[C@@H](NC(=O)CNC(=O)[C@H](CCC(N)=O)NC(=O)C(C)(C)NC(=O)[C@@H](N)Cc1ccc(O)cc1)[C@@H](C)O)[C@@H](C)O)[C@@H](C)CC)C(=O)N[C@@H](CCC(=O)O)C(=O)N[C@@H](CCCCN)C(=O)N[C@@H](C)C(=O)N[C@@H](C)C(=O)N[C@@H](C)C(=O)NC(C)(C)C(=O)N[C@@H](CCC(=O)O)C(=O)N[C@@H](Cc1ccccc1)C(=O)N[C@H](C(=O)N[C@@H](CCC(=O)O)C(=O)N[C@@H](Cc1c[nH]c2ccccc12)C(=O)N[C@@H](CC(C)C)C(=O)N[C@@H](CCCCN)C(=O)N[C@@H](CC(N)=O)C(=O)N[C@H](C(=O)NCC(=O)N1CCC[C@H]1C(=O)N[C@@H](CO)C(=O)N[C@@H](CO)C(=O)NCC(=O)N[C@@H](C)C(=O)N1CCC[C@H]1C(=O)N1CCC[C@H]1C(=O)N1CCC[C@H]1C(=O)N[C@@H](CO)C(N)=O)[C@@H](C)O)[C@@H](C)CC)C(=O)O [SEQ ID NO: 12, Y-Aib-Q-G-T-F-T-S-D-L-S-I-Q-K(yE-x53)-E-K-A-A-A-Aib-EFIEWLKNTGPSSGAPPPSN H2] (H-Y[Aib]QGTFTSDLSIQK([γGlu-Palmitoyl])EKAAA[Aib]EFIEWLKNTGPSSGAPPPS-NH2)
EC50 [1]: 0.0055 nM
EC50 [2]: 0.008 nM
EC50 [3]: 0.139 nM

CCCCCCCCCCCCCCCC(=O)N[C@@H](CCC(=O)NCCCC[C@H](NC(=O)[C@H](CCC(N)=O)NC(=O)[C@@H](NC(=O)[C@H](CO)NC(=O)[C@H](CC(C)C)NC(=O)[C@H](CC(=O)O)NC(=O)[C@H](CO)NC(=O)[C@@H](NC(=O)[C@H](Cc1ccccc1)NC(=O)[C@@H](NC(=O)CNC(=O)[C@H](CCC(=O)O)NC(=O)C(C)(C)NC(=O)[C@@H](N)Cc1ccc(O)cc1)[C@@H](C)O)[C@@H](C)O)[C@@H](C)CC)C(=O)N[C@@H](CCC(=O)O)C(=O)N[C@@H](CCCCN)C(=O)N[C@@H](CCCNC(=N)N)C(=O)N[C@@H](C)C(=O)N[C@@H](C)C(=O)N[C@@H](Cc1c[nH]cn1)C(=O)N[C@@H](CCC(=O)O)C(=O)N[C@@H](Cc1ccccc1)C(=O)N[C@H](C(=O)N[C@@H](CCC(=O)O)C(=O)N[C@@H](Cc1c[nH]c2ccccc12)C(=O)N[C@@H](CC(C)C)C(=O)N[C@@H](CCCCN)C(=O)N[C@@H](CC(N)=O)C(=O)N[C@H](C(=O)NCC(=O)N1CCC[C@H]1C(=O)N[C@@H](CO)C(=O)N[C@@H](CO)C(=O)NCC(=O)N[C@@H](C)C(=O)N1CCC[C@H]1C(=O)N1CCC[C@H]1C(=O)N1CCC[C@H]1C(=O)N[C@@H](CO)C(N)=O)[C@@H](C)O)[C@@H](C)CC)C(=O)O [SEQ ID NO: 59, Y-Aib-E-G-T-F-T-S-D-L-S-I-Q-K(yE-x53)-EKRAAHEFIEWLKNTGPSSGAPPPS-NH2] (H-Y[Aib]EGTFTSDLSIQK([γGlu-Palmitoyl])EKRAAHEFIEWLKNTGPSSGAPPPS-NH2)
EC50 [1]: 0.0075 nM
EC50 [2]: 0.0175 nM
EC50 [3]: 12.3 nM

CCCCCCCCCCCCCCCC(=O)N[C@@H](CCC(=O)NCCCC[C@H](NC(=O)[C@H](CCC(N)=O)NC(=O)[C@@H](NC(=O)[C@H](CO)NC(=O)[C@H](CC(C)C)NC(=O)[C@H](CC(=O)O)NC(=O)[C@H](CO)NC(=O)[C@@H](NC(=O)[C@H](Cc1ccccc1)NC(=O)[C@@H](NC(=O)CNC(=O)[C@H](CCC(N)=O)NC(=O)C(C)(C)NC(=O)[C@@H](N)Cc1ccc(O)cc1)[C@@H](C)O)[C@@H](C)O)[C@@H](C)CC)C(=O)N[C@@H](CCC(=O)O)C(=O)N[C@@H](CCCCN)C(=O)N[C@@H](CC(C)C)C(=O)N[C@@H](C)C(=O)N[C@@H](C)C(=O)NC(C)(C)C(=O)N[C@@H](CCC(=O)O)C(=O)N[C@@H](Cc1ccccc1)C(=O)N[C@H](C(=O)N[C@@H](CCC(=O)O)C(=O)N[C@@H](Cc1c[nH]c2ccccc12)C(=O)N[C@@H](CC(C)C)C(=O)N[C@@H](CCCCN)C(=O)N[C@@H](CC(N)=O)C(=O)N[C@H](C(=O)NCC(=O)N1CCC[C@H]1C(=O)N[C@@H](CO)C(=O)N[C@@H](CO)C(=O)NCC(=O)N[C@@H](C)C(=O)N1CCC[C@H]1C(=O)N1CCC[C@H]1C(=O)N1CCC[C@H]1C(=O)N[C@@H](CO)C(N)=O)[C@@H](C)O)[C@@H](C)CC)C(=O)O [SEQ ID NO: 8, Y-Aib-Q-G-T-F-T-S-D-L-S-I-Q-K(yE-x53)-E-K-L-A-A-Aib-E-F-I-E-W-L-K-N-T-G-P-S-S-G-A-P-P-P-S-NH2] (H-Y[Aib]QGTFTSDLSIQK([γGlu-Palmitoyl])EKLAA[Aib]EFIEWLKNTGPSSGAPPPS-NH2)
EC50 [1]: 0.0087 nM
EC50 [2]: 0.026 nM
EC50 [3]: 0.803 nM

CCCCCCCCCCCCCCCC(=O)N[C@@H](CCC(=O)NCCCC[C@H](NC(=O)[C@H](CCC(N)=O)NC(=O)[C@H](CCCCN)NC(=O)[C@H](CO)NC(=O)[C@H](CC(C)C)NC(=O)[C@H](CC(=O)O)NC(=O)[C@H](CO)NC(=O)[C@@H](NC(=O)[C@H](Cc1ccccc1)NC(=O)[C@@H](NC(=O)CNC(=O)[C@H](Cc1c[nH]cn1)NC(=O)C(C)(C)NC(=O)[C@@H](N)Cc1ccc(O)cc1)[C@@H](C)O)[C@@H](C)O)C(=O)N[C@@H](CCC(=O)O)C(=O)N[C@@H](CCCCN)C(=O)N[C@@H](CCCNC(=N)N)C(=O)N[C@@H](C)C(=O)N[C@@H](C)C(=O)NC(C)(C)C(=O)N[C@@H](CCC(=O)O)C(=O)N[C@@H](Cc1ccccc1)C(=O)N[C@H](C(=O)N[C@@H](CCC(=O)O)C(=O)N[C@@H](Cc1c[nH]c2ccccc12)C(=O)N[C@@H](CC(C)C)C(=O)N[C@@H](CCCCN)C(=O)N[C@@H](CC(N)=O)C(=O)N[C@H](C(=O)NCC(=O)N1CCC[C@H]1C(=O)N[C@@H](CO)C(=O)N[C@@H](CO)C(=O)NCC(=O)N[C@@H](C)C(=O)N1CCC[C@H]1C(=O)N1CCC[C@H]1C(=O)N1CCC[C@H]1C(=O)N[C@@H](CO)C(N)=O)[C@@H](C)O)[C@@H](C)CC)C(=O)O [SEQ ID NO: 28, Y-Aib-H-G-T-F-T-S-D-L-S-K-Q-K(yE-x53)-E-K-R-A-A-Aib-E-F-I-E-W-L-K-N-T-G-P-S-S-G-A-P-P-P-S-NH2] (H-Y[Aib]HGTFTSDLSKQK([γGlu-Palmitoyl])EKRAA[Aib]EFIEWLKNTGPSSGAPPPS-NH2)
EC50 [1]: 0.0583 nM
EC50 [2]: 0.0368 nM
EC50 [3]: 0.0048 nM
